Measurements as given in PubChem BioAssay AID2384 (Southern Research Specialized Biocontainment Screening …, 2010).
pIC50: −log10 of the molar value. Values joined by “and” are separate entries in the source; they are usually repeats but may differ in a detail not shown here. Equal entries are not always repeated.

Tested on: S. typhi GFP reporter counter-screen, fluorescence, 4 h
Test: inhibitors in S. typhi counter-screen strain, dose response, counter-screen for PhoP regulon inhibitor project, fluorescence, 4 h (AID 2384)

Row | Compound | pIC50
1 | CNC[C@H](CC1CCCCC1)NC[C@H](Cc1ccccc1)NCCC12CC3CC(CC(C3)C1)C2 | 4.98
2 | CCCOc1ccc(C2=CSC3=NCCN23)cc1Cl | 4.12
3 | Cc1ccc(-c2csc(NC(=O)C[n+]3cc(-c4ccc(C)cc4)n4c3CCC4)n2)cc1 | 4.71
4 | CCCCCOc1ccc(C)cc1CN(CCCl)CCCl | 4.15
5 | O=c1[nH]c2ccccc2n2c(=S)[nH]nc12 | 3.83
6 | Cc1ccccc1C(=O)NNC(=S)NC(=O)COc1ccccc1 | 3.90
7 | O=C(Nc1nnc(C(F)(F)F)s1)c1ccc(Br)s1 | 3.86
8 | O=C(N/N=C/c1cc(Br)ccc1O)c1ccccc1Cl | 3.95
9 | O=C(CC(=O)c1c(F)cccc1Cl)c1ccccc1O | 4.37
10 | COC12C(COC(N)=O)C3=C(C(=O)C(C)=C(N)C3=O)N1CC1C2N1C (stereo unspecified) | 5.51
11 | O=C(Nc1c2ccccc2nc2ccccc12)C(Cl)(Cl)Cl | 4.10
12 | C#CCOCCOCCOCCNc1nc(N2CCN(C(=O)CCCCCCCCCCNC(=O)[C@H]([C@@H](C)CC)n3cc(CCCCN=C(N)N)nn3)CC2)nc(N2CCN(C(=O)CCCCCCCCCCNC(=O)[C@H](CO)n3cc(CCCCCN)nn3)CC2)n1 | 4.45
13 | CCN1CCN(Cc2ccc(NC(=O)c3ccc(C)c(NC(=O)c4c[nH]c5cc(C(F)(F)F)ccc5c4=O)c3)cc2C(F)(F)F)CC1 | 4.46
14 | COc1ccc(Cc2nnc(N/N=C/c3ccc(O)cc3)[nH]c2=O)cc1OC | 4.08
15 | COc1ccc(Cl)cc1C(=O)C1CCCN(CCO)C1 (stereo unspecified) | 4.25
16 | NC1=NC[C@H](Cc2ccccc2)N1CCCCC1CCCCC1 | 4.71
17 | Cc1cc(N2CCC(C)CC2)nc2cccc(O)c12 | 4.10
18 | O=[N+]([O-])c1cc(/C=N/Nc2nc3ccccc3[nH]2)c(O)cc1O | 4.75
19 | Clc1ccc(-c2cc(C3CCNCC3)[nH]n2)c(Cl)c1 | 4.74
20 | Cc1ccccc1S(=O)(=O)NNC(=O)C(=O)NNc1ccccn1 | 4.44
21 | Cc1occc1C(=O)N/N=C/c1cccs1 | 4.26
22 | CC(NCC(O)COCCC12CC3CC(CC(C3)C1)C2)c1ccccc1 (stereo unspecified) | 4.64
23 | COc1ccc(Nc2c3c(nc4ccccc24)CCC3)cc1 | 3.95

Row | Compound | pIC50
24 | CN(C)CCCN1c2ccccc2CCc2ccc(Cl)cc21 | 4.15
25 | CCn1cc(C(=O)O)c(=O)c2cc3c(cc21)OCO3 | 4.09
26 | COc1cc(C)c(Cc2cnc(N)nc2N)cc1OC | 5.22
27 | C(=N\Nc1ccccn1)/c1cccnc1 | 4.52
28 | Cc1ccc(-c2cc(-c3ccc(C)cc3)[n+](-c3ccccc3)c(-c3ccc(C)cc3)c2)cc1 | 4.63
29 | COc1ccccc1N1CCN(Cc2ccc(O)c3ncccc23)CC1 | 4.49
30 | O=C(Cn1cc[n+](CC(=O)c2ccc(Cl)cc2Cl)c1)c1ccc(Cl)cc1Cl | 4.56
31 | NC(=NCCCCCCN=C(N)/N=C(\N)Nc1ccc(Cl)cc1)/N=C(\N)Nc1ccc(Cl)cc1 | 5.28 and 5.27 and 5.29
32 | C(=N/Nc1nccs1)/c1cccnc1 | 4.31
33 | C=CCNc1ncnc2c1[nH]c1ccc(Cl)cc12 | 4.43
34 | O=C(CN1CC[n+]2c(-c3cccs3)csc21)c1ccc(-c2ccccc2)cc1 | 4.69
35 | CN(C)C1C(=O)C(C(N)=O)=C(O)C2(O)C(=O)C3=C(O)c4c(O)cccc4C(C)(O)C3C(O)C12 (stereo unspecified) | 6.08
36 | CCN1/C(=C/C=C/C=C/c2sc3ccccc3[n+]2CC)Sc2ccccc21 | 5.01
37 | Cc1cccc(OCC(O)Cn2c(=N)n(CCN3CCCCC3)c3ccccc32)c1 (stereo unspecified) | 4.98
38 | CCOC(=O)C1=C(c2ccccc2)NC(N)=NC1c1ccc(OCc2ccc(C(=O)OC)cc2)cc1 (stereo unspecified) | 4.45
39 | c1cc2c(cc1C1CCCCC1)c1c3n2CCCNC3CCC1 (stereo unspecified) | 4.69
40 | NC1=NC2=C(CCCC2)C2(CCCCC2)S1 | 4.20
41 | CCCCOc1ccc(Br)cc1CSC(=N)N | 4.85
42 | c1ccc(CN2CCC(Nc3nc(-c4ccccc4)nc4ccccc34)CC2)cc1 | 4.42
43 | O=C(C[n+]1cc(Br)cc2ccccc21)c1ccc(F)cc1 | 4.12
44 | Nc1cc2c3c(cccc3c1)C(=O)N(CCN1CCCC1)C2=O | 3.89
45 | OC(CNCCc1ccccc1)COc1ccc(OCC(O)CNCCc2ccccc2)cc1 (stereo unspecified) | 4.67
46 | O=C(N/N=C/c1c[nH]c2ccccc12)c1cc2ccccc2o1 | 4.00

Row | Compound | pIC50
47 | CCOc1ccc(Nc2nc(NCC3CCCO3)c3ccccc3n2)cc1 (stereo unspecified) | 4.71
48 | Fc1ccc(CCNCc2ccccc2Cl)cc1 | 4.08
49 | CCN(CC(=O)NC(C)(C)C)C(=O)COc1c(Cl)cc(Cl)c2ccc(C)nc12 | 4.72
50 | CN(O)/C=c1/ccc2c(n1)C(=O)C=CC=2 | 4.71
51 | CCc1ccc2c(c1)C1(NN=C(c3ccc(C)cc3)S1)C(=O)N2 (stereo unspecified) | 4.41
52 | C=CCOc1ccc(Cl)cc1CNC1CCCC1 | 3.99
53 | CCn1cc(C(=O)O)c(=O)c2cnc(N3CCNCC3)nc21 | 4.30
54 | CCCCCCCCNC(C)C(O)c1ccc(SC(C)C)cc1 (stereo unspecified) | 4.51
55 | O=C(C[n+]1cc(-c2ccc(Cl)cc2)n2c1CCC2)N1c2ccccc2Sc2ccccc21 | 4.29
56 | CNC[C@@H](CC1CCCCC1)NC[C@H](CC(C)C)NCCc1cccc(C(F)(F)F)c1 | 4.73
57 | CN(C)c1ccc(O)c2c1CC1CC3C(N(C)C)C(=O)C(C(N)=O)=C(O)[C@@]3(O)C(=O)C1=C2O (stereo partly specified) | 5.77
58 | COC(=O)C1C(O)C(C)C(O)C(C)(O)/C=C\C=C(/C)C(=O)Nc2c(C)c(OC(C)=O)c3c(c2O)C(=O)C(C)=C2OCOC(=C23)/C(C)=C/C(C)(O)C(O)C(C)C1O (stereo unspecified) | 4.62
59 | C#CCOCCOCCOCCNc1nc(N2CCN(C(=O)CCCCCCCCCCNC(=O)Cn3cc(CCCCCN)nn3)CC2)nc(N2CCN(C(=O)CCCCCCCCCCNC(=O)[C@H]([C@@H](C)CC)n3cc(CCCCN=C(N)N)nn3)CC2)n1 | 4.42
60 | O=S1(=O)Nc2c(ccc3cccnc23)-c2ccccc21 | 5.48
61 | Cc1nnc(N/N=C/c2ccccn2)[nH]c1=O | 4.50
62 | OC(CNCc1ccco1)Cn1c2ccc(Br)cc2c2cc(Br)ccc21 (stereo unspecified) | 4.72
63 | CCCCCCCNC(=O)C1(CC2CC(c3ccc(Cl)cc3)=NO2)CCNCC1 (stereo unspecified) | 4.62
64 | CC(=O)Nc1ccc(S(=O)(=O)NNc2cccc(C)c2)cc1 | 4.56
65 | Oc1ccc(/C=N/N=C(c2ccccc2)c2ccccc2)c(O)c1O | 4.47
66 | CC[n+]1c(/C=C/N(C)c2ccccc2)n(-c2ccccc2)c2ccc(-c3nc4ccccc4s3)cc21 | 5.03
67 | C#CCOCCOCCOCCNc1nc(N2CCN(C(=O)CCCCCCCCCCNC(=O)Cn3cc(CCCCCN)nn3)CC2)nc(N2CCN(C(=O)CCCCCCCCCCNC(=O)[C@H]([C@@H](C)CC)n3cc(CCCCCN)nn3)CC2)n1 | 4.41
68 | CN(C)CCCNc1cc(C(C)(C)C)nc2c(-c3ccccc3)cnn12 | 4.50
69 | Cn1c(SCC(=O)N/N=C/c2ccc([N+](=O)[O-])s2)nnc1-c1ccc(Cl)cc1 | 4.33

Row | Compound | pIC50
70 | C/C(=N\N=C(N)N)c1ccc(Cl)c(Cl)c1 | 4.19
71 | COc1cc2c3cc1Oc1cc(ccc1O)C[C@@H]1c4c(cc(OC)c(O)c4Oc4ccc(cc4)C[C@H]3N(C)CC2)CCN1C | 4.03
72 | CC1CCC(C(C)C)C(OC(=O)Cn2c(COc3ccccc3)[n+](C)c3ccccc32)C1 (stereo unspecified) | 4.59
73 | Cc1ccc(S(=O)(=O)CCC(=O)c2ccc(O)cc2O)cc1 | 4.24
74 | COc1cc(Br)cc(/C=N/c2ncn[nH]2)c1O | 4.21
75 | Cc1ccc(NC(=O)COc2ccccc2CNC(C)(C)CC(C)(C)C)cc1 | 4.08
76 | Cc1ccc(C)c(NC(=O)c2ccccc2O)c1 | 4.24
77 | CC(NCc1ccc(Cl)c(Cl)c1)C(O)c1ccccc1 (stereo unspecified) | 4.53
78 | CC(=O)NC(c1cccs1)c1cc([N+](=O)[O-])c2cccnc2c1O (stereo unspecified) | 4.59
79 | Cc1ccc(-c2c[n+](Cc3ccc(Cl)c(Cl)c3)c3n2CCC3)cc1 | 4.59
80 | Cc1cc(C)c(NC(=O)C[N+](C)(C)CC(O)COc2cccc3ccccc23)c(C)c1 (stereo unspecified) | 4.20
81 | COc1ccc(/C=C/c2cc(-c3ccc(C)cc3)o[n+]2C)cc1 | 4.37
82 | Oc1c(CN2CCN(c3ccccn3)CC2)cc(Cl)c2cccnc12 | 4.75
83 | CCN1/C(=C/C(C)=C/c2sc3ccccc3[n+]2CC)Sc2ccccc21 | 5.51
84 | O=C(N/N=C/c1cccs1)c1ccc2nc[nH]c2c1 | 3.90
85 | Cc1ccc(NC(=O)CSC(N)=O)cc1Cl | 4.09
86 | CN1CCN(C(=O)CSc2ccc(Cl)cc2)CC1 | 3.95
87 | O=C(N/N=C/c1ccc(N2CCCC2)c([N+](=O)[O-])c1)c1cccnc1 | 3.98
88 | CC(C(=O)c1ccc(-c2ccccc2)cc1)[n+]1cccc(NC(=O)c2ccccc2)c1 (stereo unspecified) | 4.71
89 | NC1=NC[C@@H](Cc2ccc(O)cc2)N1CCc1cc(C(F)(F)F)cc(C(F)(F)F)c1 | 4.38
90 | CCn1cc(C(=O)O)c(=O)c2cc(F)c(N3CCN(C(=S)NC(=O)c4ccccc4C)CC3)cc21 | 4.31
91 | CCN(CCNCC(O)COc1ccccc1C(C)C)c1cccc(C)c1 (stereo unspecified) | 4.42
92 | CCN(CC(O)COc1ccc(OCC(O)CN(CC)C2CCCCC2)cc1)C1CCCCC1 (stereo unspecified) | 4.28

Row | Compound | pIC50
93 | O=C(O)c1cccc(N2C(=O)CSC2=S)c1 | 4.17
94 | COc1cccc(/C=N/NC(=O)c2ccoc2C)c1O | 3.86
95 | COc1cc(CNC2CCCC2)cc(Cl)c1OCc1ccccc1Cl | 4.42
96 | COc1ccc(C(=O)NNC(=S)NC(=O)c2ccccc2)cc1 | 4.03
97 | Nc1nc2ccccc2n1CCOc1ccccc1Cl | 4.39
98 | N=c1c2c(n(Cc3cccc(Cl)c3)c3c1CCC3)CCCC2 | 4.32
99 | CCCCCCCCCCOC(=O)Cn1c(COc2ccc(C)cc2)[n+](C)c2ccccc21 | 4.74
100 | Cc1ccc(-n2c(C)cc(C3N=C(N)Nc4nc5ccccc5n43)c2C)c(C)c1 (stereo unspecified) | 4.58
101 | CC(C)(C)CC(C)(C)c1ccc(OCCOCC[N+](C)(C)Cc2ccccc2)cc1 | 4.67
102 | COc1ccc(S(=O)(=O)N2CN3CCN(C3)C2)cc1 | 4.04
103 | O=C(CCN1CCN(c2ccccc2)CC1)c1ccc(Br)cc1 | 4.15
104 | OC(CNCCc1ccc(C(F)(F)F)cc1)COC(c1ccccc1)c1ccccc1 (stereo unspecified) | 4.53
105 | O=C(Cn1cnc2ccccc21)Nc1ccc(SC(F)F)cc1 | 3.84
106 | CCCCCCOc1ccc(CN2CCN(CC)CC2)cc1 | 4.00
107 | COc1cc(CNCCc2c[nH]c3ccccc23)ccc1OCc1ccc(F)cc1 | 4.42
108 | O=C1OCCN1/N=C/c1ccc([N+](=O)[O-])o1 | 4.55
109 | OCCN1CCN(CCCN2c3ccccc3Sc3ccc(Cl)cc32)CC1 | 4.13
110 | NC1CCN(c2nc3c(cc2F)c(=O)c(C(=O)O)cn3-c2ccc(F)cc2F)C1 (stereo unspecified) | 5.82
111 | CCn1cc(C(=O)O)c(=O)c2cc(F)c(N3CCN(C(=S)Nc4ccc(OC)cc4)CC3)cc21 | 4.44
